Columns and labels:
[1] = log P by HPLC on reversed-phase column (C18), EEC directive 79/831 Annex V.A8; type: physicochemical; settings: for logP [n]: pH 7.8
[2] = tested on: green peach aphid (Myzus persicae); assay: Myzus persicae spray test (Chinese cabbage leaf discs); type: in vivo; settings: application rate 500 g/ha, after 5-6 days, Chinese cabbage leaf discs; 100% = all aphids killed
Protocol: (§1) Myzus persicae—Spray Test
To produce a suitable active ingredient formulation, 1 part by weight of active ingredient is dissolved with the stated parts by weight of solvent and made up with water containing an emulsifier concentration of 1000 ppm until the desired concentration is attained. To produce further test concentrations, the formulation is diluted with emulsifier-containing water.
After 5-6 days, the efficacy in % is determined. 100% means that all the aphids have been killed; 0% means that no aphids have been killed.

[3] = tested on: green peach aphids (Myzus persicae); assay: Myzus persicae oral test; type: in vivo; settings: application rate 20 ppm, after 5 days, oral, 100% = all aphids killed
Protocol: (§2) Solvent: 100 parts by weight of acetone
Subsequently, the plates are sealed with parafilm, which a mixed population of green peach aphids (Myzus persicae) within a second microtitre plate is able to puncture and imbibe the solution through it.
After 5 days, the efficacy in % is determined. 100% means that all the aphids have been killed; 0% means that no aphids have been killed.

[4] = tested on: engorged adult female cattle ticks (Boophilus microplus); assay: Boophilus microplus injection test; type: in vivo; settings: 20 μg/animal, assessed after 7 days, 100% = no tick laid fertile eggs
Protocol: Boophilus microplus—Injection Test
Solvent: dimethyl sulphoxide
To produce a suitable preparation of active compound, 10 mg of active compound are mixed with 0.5 ml of solvent and the concentrate is diluted with solvent to the desired concentration.
1 μl of the active compound solution is injected into the abdomen of 5 engorged adult female cattle ticks (Boophilus microplus). The animals are transferred into dishes and kept in a climate-controlled room.
Efficacy is assessed after 7 days by laying of fertile eggs. Eggs which are not visibly fertile are stored in a climate-controlled cabinet until the larvae hatch after about 42 days. An efficacy of 100% means that none of the ticks has laid any fertile eggs; 0% means that all the eggs are fertile.

[5] = tested on: green peach aphid (Myzus persicae); assay: Myzus persicae spray test (bell pepper plants); type: in vivo; settings: application rate 20 ppm, after 6 days, 100% = all aphids killed
Protocol: as §1
Solvent: 14 parts by weight of dimethylformamide
(§3) Emulsifier: alkylaryl polyglycol ether
If the addition of ammonium salts or/and penetrants is required, these are each added in a concentration of 1000 ppm to the formulation solution.
Bell pepper plants (Capsicum annuum) severely infested with the green peach aphid (Myzus persicae) are treated by spraying with the active compound formulation in the desired concentration.
After 6 days, the kill in % is determined. 100% means that all of the aphids have been killed; 0% means that none of the aphids have been killed.

[6] = tested on: green peach aphids (Myzus persicae); assay: Myzus persicae oral test (MYZUPE O), comparison with prior art; type: in vivo; settings: Myzus persicae, po, 120 h, MYZUPE O, 5 dat, read-out: % efficacy
Protocol: Myzus persicae—Oral Test (MYZUPE O)
as §2
50 μl of the active compound preparation are transferred into microtitre plates and made up to a final volume of 200 μl with 150 μl of IPL41 insect medium (33%+15% sugar). Subsequently, the plates are sealed with parafilm, which a mixed population of green peach aphids (Myzus persicae) within a second microtitre plate is able to puncture and imbibe the solution through it.
After the desired period of time (dat), the efficacy in % is determined. 100% means that all the aphids have been killed; 0% means that no aphids have been killed.

[7] = tested on: caterpillars of the armyworm (Spodoptera frugiperda); settings: application rate 500 g/ha, after 7 days, maize leaf discs; 100% = all caterpillars killed
Protocol: Spodoptera Frugiperda—Spray Test
as §3
To produce further test concentrations, the formulation is diluted with emulsifier-containing water.
After 7 days, the efficacy in % is determined. 100% means that all the caterpillars have been killed; 0% means that no caterpillar has been killed.

[8] = tested on: larvae of the mustard beetle (Phaedon cochleariae); settings: application rate 500 g/ha, after 7 days, Chinese cabbage leaf discs; 100% = all beetle larvae killed

| logP [n] [1] | chromatographic logP ([1]; reversed-phase HPLC column (C18), neutral range, pH 7.8, HPLC C18, 43° C., Table 1, read-out: logP [n]) | Structure (SMILES) | efficacy in % [2] [%] | efficacy in % [3] [%] | efficacy (laying of fertile eggs) [4] [%] | kill in % (efficacy) [5] [%] | pest or weed control at 20 ppm ([3]; Myzus persicae, 120 h, read-out: efficacy in %) [%] | Emax at 0.8 ppm ([6]; 0.8 ppm) [%] | Emax at 4 ppm ([6]; 4 ppm) [%] | efficacy in % [7] [%] | efficacy in % [8] [%] |
| --- | --- | --- | --- | --- | --- | --- | --- | --- | --- | --- | --- |
| 1.99 |  | CN(C(=O)c1cnc(/C=N/OC(C)(C)C)n1C)c1cccnc1 [I-1-037] | 100 | 100 | 90 |  |  |  |  |  |  |
| 1.68 |  | CN(C(=O)c1cnc(/C=N/OCC(F)(F)F)n1C)c1cccnc1 [I-1-031] | 90 | 100 | 80 |  |  |  |  |  |  |
|  | 0.92 | CN(C(=O)c1cnc(C2OCCCO2)n1C)c1cccnc1 [I-1-006] |  |  |  | 98 | 100 | 100 | 100 |  |  |

| Structure (SMILES) | logP [n] [1] | chromatographic logP ([1]; reversed-phase HPLC column (C18), neutral range, pH 7.8, HPLC C18, 43° C., Table 1, read-out: logP [n]) | efficacy in % [2] [%] | efficacy in % [3] [%] | efficacy (laying of fertile eggs) [4] [%] | kill in % (efficacy) [5] [%] | pest or weed control at 20 ppm ([3]; Myzus persicae, 120 h, read-out: efficacy in %) [%] | Emax at 0.8 ppm ([6]; 0.8 ppm) [%] | Emax at 4 ppm ([6]; 4 ppm) [%] | efficacy in % [7] [%] | efficacy in % [8] [%] |
| --- | --- | --- | --- | --- | --- | --- | --- | --- | --- | --- | --- |
| CCN(C(=O)c1cnc(C=O)n1C)c1cccnc1 [I-1-039] | 0.97 |  |  | 100 |  |  |  |  |  | 83 | 100 |

— patent publication US20190045783A1, “SUBSTITUTED IMIDAZOLYLCARBOXAMIDES AS PESTICIDES” (BAYER CROPSCIENCE AKTIENGESELLSCHAFT, priority 2016, published 2019)
